According to patent publication US9149038B2, “4-amino-6-(heterocyclic)picolinates and 6-amino-2-(heterocyclic)pyrimidine-4-carboxylates and their use as herbicides” (Dow AgroSciences LLC, priority 2013, dated 2015):
Read-outs that look alike come from different tables or passages of the source.

How the values were obtained:
[1] = test system: Key Grass and Sedge Weeds as well as Grass Crops; test: Post-Emergent Test II: postemergent herbicidal activity, visual rating after 14 d (Table 8); type: in vivo; details: post-emergence, 336 h; for pest or weed control at 35 g/ha: 35 g ai/ha; for pest or weed control at 70 g/ha: 70 g ai/ha; for pest or weed control at 140 g/ha: 140 g ai/ha
Summary of the method: (§1)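 Visual 0-100% injury score (0 no injury, 100 complete kill) at 14 d post-spray, relative to untreated plants. Seedlings at 1st-2nd true leaf stage; track sprayer at 187 L/ha, highest rate plus ½×, ¼×, ⅛×, 1/16× serial dilutions. Subirrigated after treatment.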

[2] = test system: Key Broadleaf Weed and Crop Species; test: Post-Emergent Test II: postemergent herbicidal activity, visual rating after 14 d (Table 7); type: in vivo; details: post-emergence, 336 h; for pest or weed control at 35 g/ha: 35 g ai/ha; for pest or weed control at 70 g/ha: 70 g ai/ha; for pest or weed control at 140 g/ha: 140 g ai/ha
Summary of the method: as §1

[3] = barnyardgrass (Echinochloa crus-galli), read-out: Visual Growth Reduction (%) 14 Days After Application, ECHCG
[4] = giant foxtail (Setaria faberi), read-out: Visual Growth Reduction (%) 14 Days After Application, SETFA
[5] = maize, corn (Zea mays), read-out: Visual Growth Reduction (%) 14 Days After Application, ZEAMX
[6] = rice (Oryza sativa), read-out: Visual Growth Reduction (%) 14 Days After Application, ORYSA
[7] = wheat, spring (Triticum aestivum), read-out: Visual Growth Reduction (%) 14 Days After Application, TRZAS
[8] = yellow nutsedge (Cyperus esculentus), read-out: Visual Growth Reduction (%) 14 Days After Application, CYPES
[9] = ABUTH: velvetleaf (Abutilon theophrasti), read-out: Visual Growth Reduction (%) 14 Days After Application ABUTH
[10] = AMARE: redroot pigweed (Amaranthus retroflexus), read-out: Visual Growth Reduction (%) 14 Days After Application AMARE
[11] = BRSNN: oilseed rape, canola (Brassica napus), read-out: Visual Growth Reduction (%) 14 Days After Application BRSNN
[12] = CHEAL: lambsquarters (Chenopodium album), read-out: Visual Growth Reduction (%) 14 Days After Application CHEAL
[13] = EPHHL: wild poinsettia (Euphorbia heterophylla), read-out: Visual Growth Reduction (%) 14 Days After Application EPHHL
[14] = HELAN: sunflower (Helianthus annuus), read-out: Visual Growth Reduction (%) 14 Days After Application HELAN

| SMILES | pest or weed control at 35 g/ha [1, 3] | pest or weed control at 70 g/ha [1, 3] | pest or weed control at 140 g/ha [1, 3] | pest or weed control at 35 g/ha [1, 4] | pest or weed control at 70 g/ha [1, 4] | pest or weed control at 140 g/ha [1, 4] | pest or weed control at 35 g/ha [1, 5] | pest or weed control at 70 g/ha [1, 5] | pest or weed control at 140 g/ha [1, 5] | pest or weed control at 35 g/ha [1, 6] | pest or weed control at 70 g/ha [1, 6] | pest or weed control at 140 g/ha [1, 6] | pest or weed control at 35 g/ha [1, 7] | pest or weed control at 70 g/ha [1, 7] | pest or weed control at 140 g/ha [1, 7] | pest or weed control at 35 g/ha [1, 8] | pest or weed control at 70 g/ha [1, 8] | pest or weed control at 140 g/ha [1, 8] | pest or weed control at 35 g/ha [2, 9] | pest or weed control at 70 g/ha [2, 9] | other results |
| --- | --- | --- | --- | --- | --- | --- | --- | --- | --- | --- | --- | --- | --- | --- | --- | --- | --- | --- | --- | --- | --- |
| COC(=O)c1nc(-c2ccc(F)c3c2OC(F)(F)O3)cc(N)c1Cl [Compound 88] | 0 to 29% | 0 to 29% | 0 to 29% | 0 to 29% | 0 to 29% | 0 to 29% | 0 to 29% | 0 to 29% | 0 to 29% | 0 to 29% | 0 to 29% | 0 to 29% | 0 to 29% | 45 to 59% | 60 to 74% | 30 to 44% | 60 to 74% | 75 to 84% | 60 to 74% | 85 to 94% | pest or weed control at 140 g/ha [2, 9]: 85 to 94%; pest or weed control at 35 g/ha [2, 10]: 95 to 100%; pest or weed control at 70 g/ha [2, 10]: 95 to 100%; pest or weed control at 140 g/ha [2, 10]: 95 to 100%; pest or weed control at 35 g/ha [2, 11]: 60 to 74%; pest or weed control at 70 g/ha [2, 11]: 60 to 74%; pest or weed control at 140 g/ha [2, 11]: 75 to 84%; pest or weed control at 35 g/ha [2, 12]: 85 to 94%; pest or weed control at 70 g/ha [2, 12]: 85 to 94%; pest or weed control at 140 g/ha [2, 12]: 95 to 100%; pest or weed control at 35 g/ha [2, 13]: 0 to 29%; pest or weed control at 70 g/ha [2, 13]: 0 to 29%; pest or weed control at 140 g/ha [2, 13]: 0 to 29%; pest or weed control at 35 g/ha [2, 14]: 30 to 44%; pest or weed control at 70 g/ha [2, 14]: 60 to 74%; pest or weed control at 140 g/ha [2, 14]: 60 to 74% |
| Nc1cc(-c2ccc(F)c3c2OC(F)(F)O3)nc(C(=O)O)c1Cl [Compound 89] | 0 to 29% | 0 to 29% | 0 to 29% | 0 to 29% | 0 to 29% | 0 to 29% | 0 to 29% | 0 to 29% | 0 to 29% | 0 to 29% | 0 to 29% | 0 to 29% | 0 to 29% | 0 to 29% | 0 to 29% | 0 to 29% | 0 to 29% | 0 to 29% | 0 to 29% | 75 to 84% | pest or weed control at 140 g/ha [2, 9]: 75 to 84%; pest or weed control at 35 g/ha [2, 10]: 95 to 100%; pest or weed control at 70 g/ha [2, 10]: 95 to 100%; pest or weed control at 140 g/ha [2, 10]: 95 to 100%; pest or weed control at 35 g/ha [2, 11]: 85 to 94%; pest or weed control at 70 g/ha [2, 11]: 85 to 94%; pest or weed control at 140 g/ha [2, 11]: 95 to 100%; pest or weed control at 35 g/ha [2, 12]: 95 to 100%; pest or weed control at 70 g/ha [2, 12]: 95 to 100%; pest or weed control at 140 g/ha [2, 12]: 95 to 100%; pest or weed control at 35 g/ha [2, 13]: 0 to 29%; pest or weed control at 70 g/ha [2, 13]: 0 to 29%; pest or weed control at 140 g/ha [2, 13]: 0 to 29%; pest or weed control at 35 g/ha [2, 14]: 60 to 74%; pest or weed control at 70 g/ha [2, 14]: 60 to 74%; pest or weed control at 140 g/ha [2, 14]: 75 to 84% |
| COC(=O)c1nc(-c2c(F)ccc3c2OC(F)(F)O3)cc(N)c1Cl [Compound 90, Methyl 4-amino-3-chloro-6-(2,2,5-trifluorobenzo[d][1,3]dioxol-4-yl)picolinate] | 0 to 29% | 0 to 29% | 0 to 29% | 0 to 29% | 0 to 29% | 0 to 29% | 0 to 29% | 0 to 29% | 0 to 29% | 0 to 29% | 0 to 29% | 0 to 29% | 0 to 29% | 0 to 29% | 0 to 29% | 0 to 29% | 0 to 29% | 0 to 29% | 60 to 74% | 75 to 84% | pest or weed control at 140 g/ha [2, 9]: 85 to 94%; pest or weed control at 35 g/ha [2, 10]: 95 to 100%; pest or weed control at 70 g/ha [2, 10]: 95 to 100%; pest or weed control at 140 g/ha [2, 10]: 95 to 100%; pest or weed control at 35 g/ha [2, 11]: 0 to 29%; pest or weed control at 70 g/ha [2, 11]: 0 to 29%; pest or weed control at 140 g/ha [2, 11]: 60 to 74%; pest or weed control at 35 g/ha [2, 12]: 85 to 94%; pest or weed control at 70 g/ha [2, 12]: 95 to 100%; pest or weed control at 140 g/ha [2, 12]: 95 to 100%; pest or weed control at 35 g/ha [2, 13]: 0 to 29%; pest or weed control at 70 g/ha [2, 13]: 0 to 29%; pest or weed control at 140 g/ha [2, 13]: 0 to 29%; pest or weed control at 35 g/ha [2, 14]: 0 to 29%; pest or weed control at 70 g/ha [2, 14]: 0 to 29%; pest or weed control at 140 g/ha [2, 14]: 0 to 29% |
| Nc1cc(-c2c(F)ccc3c2OC(F)(F)O3)nc(C(=O)O)c1Cl [Compound 91] | 0 to 29% | 0 to 29% | 0 to 29% | 0 to 29% | 0 to 29% | 0 to 29% | 0 to 29% | 0 to 29% | 0 to 29% | 0 to 29% | 0 to 29% | 0 to 29% | 0 to 29% | 0 to 29% | 0 to 29% | 0 to 29% | 0 to 29% | 0 to 29% | 60 to 74% | 75 to 84% | pest or weed control at 140 g/ha [2, 9]: 75 to 84%; pest or weed control at 35 g/ha [2, 10]: 95 to 100%; pest or weed control at 70 g/ha [2, 10]: 95 to 100%; pest or weed control at 140 g/ha [2, 10]: 95 to 100%; pest or weed control at 35 g/ha [2, 11]: 0 to 29%; pest or weed control at 70 g/ha [2, 11]: 45 to 59%; pest or weed control at 140 g/ha [2, 11]: 60 to 74%; pest or weed control at 35 g/ha [2, 12]: 95 to 100%; pest or weed control at 70 g/ha [2, 12]: 95 to 100%; pest or weed control at 140 g/ha [2, 12]: 95 to 100%; pest or weed control at 35 g/ha [2, 13]: 0 to 29%; pest or weed control at 70 g/ha [2, 13]: 0 to 29%; pest or weed control at 140 g/ha [2, 13]: 0 to 29%; pest or weed control at 35 g/ha [2, 14]: 0 to 29%; pest or weed control at 70 g/ha [2, 14]: 0 to 29%; pest or weed control at 140 g/ha [2, 14]: 0 to 29% |
